Measurements: patent US11945794B2, “Nuclear transport modulators and uses thereof” (Karyopharm Therapeutics Inc., priority 2013, dated 2024)
pIC50: −log10 of the molar value.

Tests used:
COLO 205 xenograft = experiment: COLO 205 colorectal carcinoma xenograft model; format: in vivo, mouse
Procedure: COLO 205 (CCL-222) colorectal cancer cells were obtained from ATCC. These cells were grown in RPMI-1640 medium supplemented with 10% fetal bovine serum, 1% penicillin and streptomycin. Cells were sub-cultured by transferring floating cells to a new flask and trypsinizing adherent cells before sub-culturing at a ratio of 1:4. COLO 205 cells were harvested by centrifugation and counted using a hemocytometer. Cells were resuspended in PBS at a concentration of 5×10^7 cells per mL. Cells were placed on ice, and then mixed with an equal volume of Matrigel™ (BD Biosciences CB-40234). This mixture was kept on ice and injected into the left flank of mice in a volume of 0.2 mL, equivalent to 5×10^6 cells per mouse. Thirty-two (32) SCID mice were inoculated subcutaneously in the left flank with 5×10^6 COLO 205 cells. Treatment was initiated when the tumors reached a mean volume of 103.7 mm^3 (standard deviation±30 mm^3, range 17-183 mm^3). Mice were allocated to four (4) groups of eight (8) mice such that mean tumor volume in each group was within the range of 95 to 104 mm^3. […] With the exception of 5-FU (which was given IP on days 1 and 3), all compounds were given by oral gavage. […] Animal weights and conditions were recorded daily, and tumors were measured on Mondays, Wednesdays and Fridays.

Z-138 xenograft = experiment: Z-138 mantle cell lymphoma xenograft model; format: in vivo, mouse
Procedure: Z-138 (ATCC #CRL-3001) mantle cell lymphoma cells were obtained from ATCC. These cells were grown in IMEM medium supplemented with 10% horse serum, 1% penicillin and streptomycin, and 2 mM L-glutamine. Cells were sub-cultured by dilution at a ratio of 1:5 to 1:10. Z-138 cells were harvested by centrifugation and counted using a hemocytometer. Cells were resuspended in PBS at a concentration of 2×10^8 cells per mL. Cells were placed on ice and mixed with an equal volume of Matrigel (BD Biosciences CB-40234). This mixture was kept on ice and injected into the left flank of mice in a volume of 0.2 mL, equivalent to 2×10^7 cells per mouse. Thirty-two (32) CB-17 SCID mice were inoculated subcutaneously in the left flank with 2×10^7 Z-138 cells. Treatment was initiated when the tumors reached a mean volume of 125.2 mm^3. Mice were allocated to four (4) groups of eight (8) mice such that mean tumor volume in each group was within the range of 106.5 to 138.8 mm^3. […] Animal weights and conditions were recorded daily, and tumors were measured on Mondays, Wednesdays and Fridays.

MOLT4 = experiment: MTT assay panel; format: cell-based; details: Homo sapiens, MOLT-4; MOLT4 cells, 72 hours
Procedure: (§1) Compound 124 was further tested against a panel of selected solid and hematological cancer cell lines and selected normal cell lines in an MTT assay. Briefly, the various cell lines above were plated at different densities on day 1. […] Cell Titer AQueous One was added to each well, and the plates were read in a plate reader at OD 495.

Z-138 = experiment: MTT assay panel; format: cell-based; details: Homo sapiens; Z-138 cells, 72 hours
Procedure: as §1

NCI-H358 = experiment: MTT assay panel; format: cell-based; details: Homo sapiens; NCI-H358 cells, 72 hours
Procedure: as §1

RKO = experiment: MTT assay panel; format: cell-based; details: Homo sapiens; RKO cells, 72 hours
Procedure: as §1

SW-403 = experiment: MTT assay panel; format: cell-based; details: Homo sapiens; SW-403 cells, 72 hours
Procedure: as §1

MDA-MB-468 xenograft = MDA-MB-468 xenograft model; format: in vivo, mouse; details: 10 mg/kg PO once daily, CB-17 SCID mice, compared to vehicle
Procedure: MDA-MB-468 (ATCC #HTB-102) breast adenocarcinoma cells were obtained from ATCC. These cells were grown in high glucose DMEM medium supplemented with 10% fetal bovine serum, 1% penicillin and streptomycin, and 2 mM L-Glutamine. Cells were sub-cultured by dilution at a ratio of 1:4. MDA-MB-468 cells were harvested by trypsinization and counted using a hemocytometer. Cells were resuspended in PBS at a concentration of 4×10^8 cells per mL. Cells were placed on ice and mixed with an equal volume of Matrigel (BD Biosciences CB-40234). Twenty-two (22) CB-17 SCID mice were inoculated sub-cutaneously in the left flank with 4×10^7 MDA-MB-468 cells. Treatment was initiated when the tumors reached a mean volume of ˜100 mm^3. […] Animals' weights and condition were recorded daily, and tumors were measured on Mondays, Wednesdays, and Fridays.

CRM1 = molecular target: T1, CRM1 (Homo sapiens, UniProt O14980); experiment: Washout assay in U2OS Rev-GFP cells; format: cell-based; details: 24 hour washout versus no washout
T1 construct: endogenous in cells; host or cells: U2OS cells stably expressing Rev-GFP
T1 sequence (O14980 whole entry): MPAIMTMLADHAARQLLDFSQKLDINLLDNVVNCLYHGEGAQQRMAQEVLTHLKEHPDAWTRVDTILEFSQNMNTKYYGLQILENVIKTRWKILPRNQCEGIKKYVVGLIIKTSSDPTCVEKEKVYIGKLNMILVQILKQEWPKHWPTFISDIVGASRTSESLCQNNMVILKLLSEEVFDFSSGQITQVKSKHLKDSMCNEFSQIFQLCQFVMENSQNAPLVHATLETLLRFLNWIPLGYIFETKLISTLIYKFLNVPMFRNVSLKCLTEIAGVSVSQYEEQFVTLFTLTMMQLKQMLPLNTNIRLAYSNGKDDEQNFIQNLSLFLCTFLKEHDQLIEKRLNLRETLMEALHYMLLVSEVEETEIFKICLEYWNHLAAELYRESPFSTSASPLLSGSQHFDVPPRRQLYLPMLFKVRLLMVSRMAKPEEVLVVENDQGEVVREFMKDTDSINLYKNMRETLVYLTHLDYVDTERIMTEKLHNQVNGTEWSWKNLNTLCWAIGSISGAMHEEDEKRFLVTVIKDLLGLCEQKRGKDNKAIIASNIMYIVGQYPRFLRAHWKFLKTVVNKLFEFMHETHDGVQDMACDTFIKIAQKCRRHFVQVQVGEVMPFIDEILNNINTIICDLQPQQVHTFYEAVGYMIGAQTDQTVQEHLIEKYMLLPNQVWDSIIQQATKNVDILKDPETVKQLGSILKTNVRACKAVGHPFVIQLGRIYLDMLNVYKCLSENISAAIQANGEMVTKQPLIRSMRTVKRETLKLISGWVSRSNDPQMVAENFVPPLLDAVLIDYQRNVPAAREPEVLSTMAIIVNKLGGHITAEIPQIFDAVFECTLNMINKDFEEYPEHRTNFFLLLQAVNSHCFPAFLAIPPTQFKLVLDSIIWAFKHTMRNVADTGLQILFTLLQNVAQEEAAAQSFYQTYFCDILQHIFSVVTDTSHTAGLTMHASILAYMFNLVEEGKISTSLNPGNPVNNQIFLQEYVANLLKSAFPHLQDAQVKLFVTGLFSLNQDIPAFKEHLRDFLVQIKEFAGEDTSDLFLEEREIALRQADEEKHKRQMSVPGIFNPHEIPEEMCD
Procedure: After 4 hours, one of the plates was fixed with PFA (no washout, condition A). […] A second plate was fixed with PFA after a 4 hour washout (4 hr washout, condition B) and a third plate was fixed with PFA after a 24 hour washout (24 h washout, condition C). Cells were counterstained with the nuclear dye DAPI.

[1] = system: XPO1 cargo proteins: p53, IκB, Foxo1A, PP2A, p21 and p27; experiment: XPO1 cargo localization assay in U2OS cells (immunofluorescence); format: cell-based; details: 500 nM, 4 to 24 hours
Procedure: The fixed cells were analyzed by immunofluorescence (IF) for the nuclear localization of the following XPO1 cargo proteins: p53, IκB, Foxo1A, PP2A, p21 and p27. Nuclei were stained with DAPI. Images were taken at 20× magnification.

Hep 3B xenograft = experiment: Hep3B hepatocellular carcinoma xenograft model; format: in vivo, mouse
Procedure: Hep 3B cells (ATCC #HTB-8064) hepatocellular carcinoma cells were obtained from ATCC. These cells were grown in DMEM medium supplemented with 10% fetal bovine serum, 1% penicillin and streptomycin. Cells were sub-cultured by dilution at a ratio of 1:4. Hep3B cells were harvested by centrifugation and counted using a hemocytometer. Cells were resuspended in PBS at a concentration of 5×10^7 cells per mL. Cells were placed on ice, and then mixed with an equal volume of Matrigel™ (BD Biosciences CB-40234). This mixture was kept on ice and injected into the left flank of mice in a volume of 0.2 mL, equivalent to 5×10^6 cells per mouse. Thirty-two (32) SCID mice were inoculated subcutaneously in the left flank with 5×10^6 Hep 3B cells. Treatment was initiated when the tumors reached a mean volume of 103.7 mm^3 (standard deviation±30 mm^3, range 17-183 mm^3). Mice were allocated to four (4) groups of eight (8) mice such that mean tumor volume in each group was within the range of 95 to 104 mm^3. […] With the exception of doxorubicin (which was given IP), all compounds were given by oral gavage. […] Animal weights and conditions were recorded daily, and tumors were measured on Mondays, Wednesdays and Fridays.

[2] = 5 or 15 mg/kg PO daily, SCID mice, compared to vehicle

NC(=O)/C(=C/n1cnc(-c2cc(C(F)(F)F)cc(C(F)(F)F)c2)n1)c1cncnc1 [Compound 124, (E)-3-(3-(3,5-bis(trifluoromethyl)phenyl)-1H-1,2,4-triazol-1-yl)-2-(pyrimidin-5-yl)acrylamide]
mean tumor volume (COLO 205 xenograft; [2]): mean tumor volume was reduced | mean tumor volume compared with standard of care (COLO 205 xenograft; particularly 15 mg/kg PO daily, versus 5-FU): compared favorably | mean tumor volume compared with standard of care (Z-138 xenograft; 15 mg/kg PO daily, versus cyclophosphamide): compared favorably | mean tumor volume (Z-138 xenograft; 5 or 15 mg/kg PO daily, CB-17 SCID mice, compared to vehicle): mean tumor volume was reduced | pIC50 (MOLT4): 8.00 | pIC50 (Z-138): 8.22 | pIC50 (NCI-H358): 6.38 | pIC50 (RKO): 6.35 | pIC50 (SW-403): 6.04 | mean tumor volume (MDA-MB-468 xenograft): mean tumor volume was reduced | decrease in effectiveness after a 24 hour washout (CRM1): 6 fold | nuclear localization of XPO1 cargo proteins [1]: increased or complete nuclear localization of XPO1 cargoes | mean tumor volume (Hep 3B xenograft; [2]): mean tumor volume was reduced | mean tumor volume compared with standard of care (Hep 3B xenograft; particularly 15 mg/kg PO daily, versus doxorubicin): compared favorably
